# Reference: ChEMBL document CHEMBL4152373 (Bioorg Med Chem, 2018)
# Tests used:
# [1] = Octanol-PBS buffer partition coefficient, log D of the compound at pH 7.4 by HPLC method
# Rattus norvegicus [2] = assay: Dose normalized unbound AUC in Sprague-Dawley rat at 3 mg/kg, po administered via gavage as single dose by LC-MS/MS analysis; format: ADME, organism-based; details: in vivo
# Rattus norvegicus [3] = assay: Unbound clearance in Sprague-Dawley rat at 1 mg/kg, iv administered as single dose by LC-MS/MS analysis; format: ADME, organism-based; details: in vivo
# Mus musculus [4] = assay: Dose normalized unbound AUC in C57Bl/6J mouse at 50 mg/kg, po administered via gavage as single dose by LC-MS/MS analysis; format: ADME, organism-based; details: in vivo
# Mus musculus [5] = assay: Antidiabetic activity in C57Bl/6J mouse assessed as inhibition of blood glucose AUC (0 to 120 mins) at 50 mg/kg, po treated prior to glucose challenge by OGTT relative to control; format: functional
# [6] = Oral bioavailability in Sprague-Dawley rat at 3 mg/kg administered via gavage as single dose by LC-MS/MS analysis; format: ADME, organism-based; details: in vivo
# [7] = Fraction unbound in rat plasma at 5 uM after 4 hrs by equilibrium dialysis method
# [8] = Fraction unbound in mouse plasma at 5 uM after 4 hrs by equilibrium dialysis method
# [9] = Half life in Sprague-Dawley rat at 1 mg/kg, iv administered as single dose by LC-MS/MS analysis; format: ADME, organism-based; details: in vivo
# Mus musculus [10] = assay: Dose normalized unbound AUC in C57Bl/6J mouse at 3 mg/kg, po administered via gavage as single dose by LC-MS/MS analysis; format: ADME, organism-based; details: in vivo
# Mus musculus [11] = assay: Antidiabetic activity in C57Bl/6J mouse assessed as inhibition of blood glucose AUC (0 to 120 mins) at […], po treated prior to glucose challenge by OGTT relative to control; format: functional; details: AT84, po
# [12] = Octanol-PBS buffer partition coefficient, log D of the compound at pH 7.4 by shake flask method
Compound,logD [1],fAUC/dose (Rattus norvegicus [2]) [µM·min],CL free (Rattus norvegicus [3]) [mL/min/kg],fAUC/dose (Mus musculus [4]) [µM·min],bioavailability [6] [%],"fraction unbound at 4 h, 5 µM [7]","fraction unbound at 4 h, 5 µM [8]",half-life [9] [h],fAUC/dose (Mus musculus [10]) [µM·min],logD [12],inhibition in vivo at 50 mg/kg (Mus musculus [5]) [%],inhibition in vivo at […] (Mus musculus [11]) [%]
CN(C(=O)[C@H](CC(=O)O)Cc1ccccc1)c1nc(-c2ccccc2Cl)cs1,2.3,,,,,,,,,,,
O=C(O)C[C@@H](CC1CCCC1)C(=O)N(c1nc(-c2ccccc2-c2ccc(-n3cccn3)nc2)cs1)C1CC1,3.1,0.07,6692,0.53,25,0.0013,0.0014,2.58,,,40,
O=C(O)C[C@@H](Cc1ccccc1)C(=O)N(c1nc(-c2ccccc2Cl)cs1)C1CC1,2.3,0.7,1044,4.7,52,0.0016,0.0025,5.32,,,1,
O=C(O)C[C@@H](Cc1ccccc1)C(=O)N(c1nc(-c2cc(Cl)ccc2Cl)cs1)C1CC1,3,0.26,2800,0.32,47,0.0001,0.0001,9.83,,,5,
COc1ccc(-c2ccc(Cl)cc2-c2csc(N(C(=O)[C@@H](CC(=O)O)Cc3ccco3)C3CC3)n2)cn1,2.5,0.26,2738,1.2,38,0.0026,0.0041,9.65,,,32,
CN(C(=O)[C@@H](CC(=O)O)CC1CCCC1)c1nc(-c2ccccc2Cl)cs1,2.74 to 2.9,,,,,,,,,2.87,,
CN(C(=O)[C@@H](CC(=O)O)CC1CCOCC1)c1nc(-c2ccccc2Cl)cs1,1.27 to 1.3,,,,,,,,,1.27,,

# Further lines, with some results ahead:
logD [1],fAUC/dose (Rattus norvegicus [2]) [µM·min],CL free (Rattus norvegicus [3]) [mL/min/kg],fAUC/dose (Mus musculus [4]) [µM·min],bioavailability [6] [%],"fraction unbound at 4 h, 5 µM [7]","fraction unbound at 4 h, 5 µM [8]",half-life [9] [h],fAUC/dose (Mus musculus [10]) [µM·min],logD [12],Compound,inhibition in vivo at 50 mg/kg (Mus musculus [5]) [%],inhibition in vivo at […] (Mus musculus [11]) [%]
2.4,0.55,1091,3.3,29,0.0057,0.0075,4.67,,,CC(C)C[C@H](CC(=O)O)C(=O)N(c1nc(-c2ccccc2-c2ccc(-n3cccn3)nc2)cs1)C1CC1,26,
3.9 to 4.08,0.08,6666,,15,0.0062,0.0052,3.67,0.045,3.94,CC(C)[C@H](C(=O)Nc1nccs1)c1ccc(Cl)cc1,,7
2.13 to 2.3,2.4,738,2,77,0.0008,0.0015,8.03,,2.31,CN(C(=O)[C@@H](CC(=O)O)Cc1ccccc1)c1nc(-c2ccccc2Cl)cs1,-8,
2.2,2.1,342,4.7,35,0.0066,0.0107,7.18,,,COc1ccc(-c2ccccc2-c2csc(N(C(=O)[C@@H](CC(=O)O)CC(C)C)C3CC3)n2)cn1,19,
